Measured values taken from patent publication US11220534B2, “Treatment of neurological diseases” (Lancaster University Business Enterprises Limited, priority 2016, dated 2022).
Where no end group is shown, it is not given here. [ ]: non-standard residue; d: D form. Aib = CC(C)(N)C(=O)O

Columns and labels:
[1] = test system: C57BL/6 mice given MPTP; assay: Immunohistochemistry for TH in the substantia nigra pars compacta, MPTP Parkinson mouse model; type: in vivo; details: 10 nmol/kg i.p. once daily for 2 weeks, FIG. 4, N=6 per group
Source text: A standard model to induce Parkinson like symptoms in mice is the injection of the chemical (MPTP) (Li et al., 2009). This chemical impairs or kills neurons in the brain that produce dopamine. The mice develop motor impairments, and the dopaminergic neurons in the brain are reduced in numbers and function. The enzyme tyrosine hydroxylase (TH) is required to synthesise dopamine. A loss of TH signifies a loss of dopamine production (Harkavyi et al., 2008).
Adult male C57BL/6 mice were given the dopaminergic toxin MPTP (20 mg/kg in 0.1 mL of PBS i.p. at 2-h intervals of 4 doses MPTP; Sigma) or vehicle (PBS) for one day. […]
Immunohistochemistry for TH in the Substantia Nigra Pars Compacta and the Striatum Six animals per group were analysed for expression of tyrosine hydroxylase (TH), a marker for dopamine production. Coronal brain sections (20 μm) from striatum (bregma […]) and SNpc (bregma […]) were analysed by immunohistochemistry using antibodies recognising TH.
Sections were cut on a cryostat and postfixed in 4% paraformaldehyde, washed in PBS, treated with 0.3% H2O2 in methanol for 20 min, and washed again. […] For each animal, three tissue sections from one level of striatum were stained and analysed for TH-positive fibre innervation. […] Two tissue sections from each level were quantified by immunohistochemistry. […]

[2] = test system: APP/PS1 transgenic mice; assay: Immunohistochemical measurement of beta-amyloid plaque load in the cortex of APP/PS1 transgenic mice; type: in vivo
Source text: Animal models have been developed to test novel drugs. A standard model for Alzheimer's disease is transgenic mice that express human mutated genes for amyloid production that are known to induce Alzheimer's disease in humans. These APP/PS1 transgenic mice recapitulate some of the symptoms of Alzheimer's disease such as the aggregation of amyloid in the brain, memory loss and the loss of synapses (Radde et al., 2006).
The APP/PS1 mice express human Swedish mutated APP and human mutated presenilin-1 which induce Alzheimer's Disease in humans.
The dose of peptide tested was 10 nmol/kg body weight. The peptides were administered by a once-daily intraperitoneal injection for 8 weeks. Saline injections were administered as a control. Six animals per group were injected with a peptide or a saline control.
Animals (6 per group) were perfused transcardially with 30 ml of ice-cold PBS and 30 ml of ice-cold 4% paraformaldehyde to postfix the brain. The brains were removed and placed in fresh 30% sucrose solution in PBS to cryoprotect tissue and cut at a thickness of 40 μm on a cryostat. Sections were chosen according to stereological rules, with the first section taken at random and every 5th section afterwards. Between 7 and 13 sections were analysed per brain.
Immunostaining techniques were used to assess the neuronal plaque load (anti beta-amyloid rabbit polyclonal antibody (1:200, rabbit polyclonal-Invitrogen 71-5800) and of synaptophysin (polyclonal rabbit anti-synaptophysin primary antibody, 1:2000, Abcam, Cambridge, UK) to measure the amount of synapses in the cortex. Brain samples were first exposed to 99% formic acid for 7 minutes and then washed 3 times for 10 minutes in TBS. Pre-treatment with 99% formic acid is known to drastically increase the detection of beta-Amyloid in formalin-fixed brain samples. Then samples were incubated in 0.3% H2O2 (Sigma Aldrich; Cat.-No.: 516813) in TBS for 30 minutes on the shaker to deplete endogenous peroxides activity, and were 3 times washed in TBS for 10 minutes afterwards.
To increase permeability of membranes in the brain tissue, samples were exposed to 0.3% Triton X-100 (Sigma Aldrich; Cat.-No.: 516813) in TBS for 10 minutes on the shaker. Unspecific proteinophilic binding in the tissue was saturated by incubating the samples with 5% goat serum (Gibco; Cat.-No.: 16210-064) in TBS for 30 minutes on the shaker.
A primary antibody against beta-Amyloid or synaptophysin was added and incubated overnight on the shaker at 4° C. The antibody was polyclonal and raised against a synthetic beta-Amyloid 1-43 peptide in rabbit. The primary antibody was used in a final dilution of 1 to 250 in TBS containing 2% goat serum and […]. […]

YXEGTFTSDYSIYLDKQAAXEFVNWLLAGGPSSGAPPPSKRRQRRKKRGY-NH2 (Y[Aib]EGTFTSDYSIYLDKQAA[Aib]EFVNWLLAGGPSSGAPPPSKRRQRRKKRGY-NH2) [DA5, No. 12; X=aminoisobutyric acid]
MPTP-induced reduction of TH in the substantia nigra, pars compacta (protection of dopaminergic neurons) [1]: protected dopaminergic neurons at a greater rate than the single GIP and GLP-1 analogues
beta-amyloid plaque load in the cortex (% area positive for beta amyloid in cross sections of the brain cortex) ([2]; 10 nmol/kg body weight, once-daily intraperitoneal injection for 8 weeks, FIG. 1, N=6 per group): reduces beta-amyloid plaque load
beta-amyloid plaque load compared with the single GIP or GLP-1 analogues ([2]; 10 nmol/kg i.p. once daily for 8 weeks, FIG. 1): superior to the single GIP or GLP-1 analogues
